Each structure is given as a SMILES string. Some results are limits rather than exact numbers.

Assay [1] has as its target Kelch domain of human KEAP1 (321-624 aa) (Homo sapiens (Human), UniProt Q14145). Description: KEAP1 KELCH ThermoFluor binding assay.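 Further: Ligand-induced melting temperature shift of E. coli-expressed KEAP1 Kelch protein, Kd estimated from concentration-response curves of ΔTm.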 The following applies: KEAP Kelch […], 1,8-ANS, pH 7.0, average of results obtained, read-out: Tf Kd.
Assay [2] deals with Glo-Response ARE-luc2P HEK293 cell line. Nature of the assay: ARE luciferase reporter cell-based assay.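 Further: luciferase signal tracks Nrf2 activation of the ARE once compounds disrupt KEAP1-Nrf2 binding, read with One-Glo reagent, DMSO serving as low control.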 The following applies: average of results obtained. For orientation: A reporter such as luciferase makes a cellular process visible.
Protocol: The ARE assay utilizes a luciferase reporter cell line where the signal is proportional to NrF2 activation of the ARE. The cell line is commercially available from Promega and was prepared by stably transfecting HEK293 cells with a vector (pGL4.11) which contains the ARE response element upstream of a minimal promoter. The promoter drives expression of luc2 firefly luciferase gene. Upon disruption of KEAP1-Nrf2 binding by compound, Nrf2 translocates into the nucleus where it binds to the ARE and activates transcription of luciferase.
The materials used in this ARE assay are as follows: Glo-Response ARE-luc2P HEK293 cell line and One-Glo Luciferase Assay System were purchased from Promega (Madison, Wis.). Dulbecco's Modified Eagle medium ((DMEM), low glucose, GlutaMAX, pyruvate), fetal bovine serum (certified, heat inactivated), hygromycin B, Dulbecco's phosphate-buffered saline were purchased from Life Technologies (Grand Island, N.Y.). Penicillin, streptomycin solution (100×) and 0.05% trypsin-EDTA were purchased from Corning (Manassas, Va.). DMSO was purchased from EMD Millipore.
The ARE assay protocol is as follows: cells were maintained in growth medium (DMEM+10% FBS, 200 μg/mL hygromycin B, p-s) between 20-90% confluency by splitting twice per week. One day before the assay, cells were trypsinized, counted to determine viable cell count, and re-suspended in assay medium (DMEM+10% FBS, p-s) at 250,000 cells/mL. […] 100% DMSO was used as the low control. A 11-point dose series of the control compound was included on every plate. Compounds were spotted to an intermediate plate (Greiner #781280 V-bottom 384 well plate) using the Echo acoustic dispenser (Labscyte San Jose, Calif.). Spot size was 240 nL.
On the day of the assay, 60 mL per well of assay medium was added to the pre-spotted plate to make 2× compound stocks using the Combi (Thermo Waltham, Mass.). Compound and medium were mixed on the Janus and 20 mL of 2×compound stock was added to the cell plate which already contained 20 mL of assay medium from cell plating. […] The plates were returned to the tissue culture incubator for 24 hours.
The next day, luciferase activity was measured according to the manufacturer's protocol for One-Glo luciferase reagent. The plates were removed from the incubator and allowed to equilibrate to room temperature for 30 min. Forty microliters of One-Glo reagent (equilibrated to room temperature) was added per well using the Combi. The plates were mixed on an orbital shaker for 3 min. Luminescence was read on the BMG Pherastar multiplate reader (Cary, N.C.) using the luminescence protocol (1 sec interval).
The dose-response data were analyzed in Genedata Screener using 4PL nonlinear regression model. Raw luminescence counts as well as normalized values were used for data analysis.

Sequence of Kelch domain of human KEAP1 (321-624 aa) (Q14145 321-624): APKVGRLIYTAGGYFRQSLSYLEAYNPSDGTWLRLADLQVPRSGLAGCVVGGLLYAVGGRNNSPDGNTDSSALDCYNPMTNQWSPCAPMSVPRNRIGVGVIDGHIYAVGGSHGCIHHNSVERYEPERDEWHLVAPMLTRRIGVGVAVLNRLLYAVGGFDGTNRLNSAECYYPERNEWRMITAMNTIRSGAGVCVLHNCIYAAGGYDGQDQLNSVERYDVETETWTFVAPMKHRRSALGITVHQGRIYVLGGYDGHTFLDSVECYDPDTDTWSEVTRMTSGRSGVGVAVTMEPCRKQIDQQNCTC

As to `Cc1cnc2c(c1)S(=O)(=O)N(Cc1cc([C@H](c3ccn4c(C(F)(F)F)nnc4c3C)C(C)(C)C(=O)O)ccc1C)CC1(CCNCC1)O2` (single isomer, unassigned) [Example 341, (*R)-2,2-Dimethyl-3-(4-methyl-3-((8′-methyl-1′,1′-dioxidospiro[piperidine-4,4′-pyrido[2,3-b][1,4,5]oxathiazepin]-2′(3′H)-yl)methyl)phenyl)-3-(8-methyl-3-(trifluoromethyl)-[1,2,4]triazolo[4,3-a]pyridin-7-yl)propanoic Acid], in assay [1], the dissociation constant Kd came out at 18800 nM. Also, the EC50 in assay [2] (Homo sapiens, HEK293, 24 h) is > 20 nM.
The matching figures for `Cc1ccc(C(CC(=O)O)c2ccn3c(C(F)(F)F)nnc3c2C)cc1CN1C[C@@H]2CN(C)CCN2c2ncccc2S1(=O)=O` (mixture of isomers) [Example 177, (R/S)-3-(4-Methyl-3-(((*S)-9-methyl-5,5-dioxido-7,7a,8,9,10,11-hexahydro-6H-pyrazino[2,1-d]pyrido[2,3-f][1,2,5]thiadiazepin-6-yl)methyl)phenyl)-3-(8-methyl-3-(trifluoromethyl)-[1,2,4]triazolo[4,3-a]pyridin-7-yl)propanoic Acid]: 49 nM and 1390 nM.
Taken in the same sequence, the figures for `Cc1cnc2c(c1)S(=O)(=O)N(Cc1cc([C@H](c3ccn4c(C(F)F)nnc4c3C)C(C)(C)C(=O)O)ccc1C)CC1(CCOCC1)O2` (single isomer, unassigned) [Example 577, (*R)-3-(3-(Difluoromethyl)-8-methyl-[1,2,4]triazolo[4,3-a]pyridin-7-yl)-2,2-dimethyl-3-(4-methyl-3-((8′-methyl-1′,1′-dioxido-2,3,5,6-tetrahydrospiro[pyran-4,4′-pyrido[2,3-b][1,4,5]oxathiazepin]-2′(3′H)-yl)methyl)phenyl)propanoic Acid] were 718 nM and 768 nM.
With `Cc1ccc(C(CC(=O)O)c2ccn3c(C(F)F)nnc3c2C)cc1CN1C[C@H]2CCCN2c2ncccc2S1(=O)=O` (mixture of isomers) [Example 449, 3-(3-(Difluoromethyl)-8-methyl-[1,2,4]triazolo[4,3-a]pyridin-7-yl)-3-(3-(((R)-5,5-dioxido-7a,8,9,10-tetrahydropyrido[2,3-f]pyrrolo[2,1-d][1,2,5]thiadiazepin-6(7H)-yl)methyl)-4-methylphenyl)propanoic Acid], the Kd in assay [1] is < 1 nM. In assay [2] (Homo sapiens, HEK293, 24 h), this compound displayed a concentration giving a half-maximal response (EC50) of 47.6 nM.
The matching figures for `Cc1ccc([C@@H](c2ccn3c(C(F)F)nnc3c2C)C(C)(C)C(=O)O)cc1CN1CC2(CC2)Oc2nc(OCCN3CCCC3)c(C)cc2S1(=O)=O` (single isomer, unassigned) [Example 375, (*S)-3-(3-(Difluoromethyl)-8-methyl-[1,2,4]triazolo[4,3-a]pyridine-7-yl)-2,2-dimethyl-3-(4-methyl-3-((8′-methyl-1′,1′-dioxido-7′-(2-(pyrrolidin-1-yl)ethoxy)spiro[cyclopropane-1,4′-pyrido[2,3-b][1,4,5]oxathiazepin]-2′(3′H)-yl)methyl)phenyl)propanoic Acid]: < 1 nM and 11.5 nM.
Taken in the same sequence, the figures for `Cc1ccc([C@@H](CC(=O)O)c2ccn3c(C(F)(F)F)nnc3c2C)nc1CN1C[C@@H]2CCCCN2c2ncccc2S1(=O)=O` (single isomer, unassigned) [Example 479, (*S)-3-(6-(((*S)-5,5-Dioxido-7,7a,8,9,10,11-hexahydro-6H-dipyrido[2,1-d:2′,3′-f][1,2,5]thiadiazepin-6-yl)methyl)-5-methylpyridin-2-yl)-3-(8-methyl-3-(trifluoromethyl)-[1,2,4]triazolo[4,3-a]pyridin-7-yl)propanoic Acid] were < 1 nM and 48.8 nM.
Taken in the same sequence, the figures for `Cc1ccc([C@@H](CC(=O)O)c2ccn3c(C(F)F)nnc3c2C)cc1CN1CC2(COC2)Oc2ncccc2S1(=O)=O` (single isomer, unassigned) [Example 471, (*R)-3-(3-(Difluoromethyl)-8-methyl-[1,2,4]triazolo[4,3-a]pyridin-7-yl)-3-(3-((1′,1′-dioxidospiro[oxetane-3,4′-pyrido[2,3-b][1,4,5]oxathiazepin]-2′(3′H)-yl)methyl)-4-methylphenyl)propanoic Acid] were < 1 nM and 2630 nM.
For `Cc1ccc([C@@H](CC(=O)O)c2ccc3c(nnn3CC3CC3)c2C(F)F)cc1CN1C[C@H]2CCCCN2c2ncccc2S1(=O)=O` (single isomer, unassigned) [Example 173, (*R)-3-(1-(Cyclopropylmethyl)-4-(difluoromethyl)-1H-benzo[d][1,2,3]triazol-5-yl)-3-(3-(((R)-5,5-dioxido-7,7a,8,9,10,11-hexahydro-6H-dipyrido[2,1-d:2′,3′-f][1,2,5]thiadiazepin-6-yl)methyl)-4-methylphenyl)propanoic Acid], the equilibrium dissociation constant (Kd) in assay [1] is 4 nM. The 50% effective concentration (EC50) in assay [2] (24 hours) was 540 nM.
Regarding `Cc1ccc([C@H](CC(=O)O)c2ccn3c(C(F)(F)F)nnc3c2C)nc1CN1CC2(COC2)Oc2ncccc2S1(=O)=O` (single isomer, unassigned) [Example 495, (*R)-3-(6-((1′,1′-Dioxidospiro[oxetane-3,4′-pyrido[2,3-b][1,4,5]oxathiazepin]-2′(3′H)-yl)methyl)-5-methylpyridin-2-yl)-3-(8-methyl-3-(trifluoromethyl)-[1,2,4]triazolo[4,3-a]pyridin-7-yl)propanoic Acid], in assay [1], the Kd is < 1 nM. In assay [2] (Homo sapiens, HEK293, 24 h), this compound came in with a 50% effective concentration (EC50) of 2860 nM.
The matching figures for `Cc1ccc([C@H](CC(=O)O)c2ccc3c(nnn3CC3CC3)c2C)cc1CN1C[C@@H]2CCCCN2c2ncccc2S1(=O)=O` (single isomer, unassigned) [Example 232, (*S)-3-(1-(Cyclopropylmethyl)-4-methyl-1H-benzo[d][1,2,3]triazol-5-yl)-3-(3-(((*S)-5,5-dioxido-7,7a,8,9,10,11-hexahydro-6H-dipyrido[2,1-d:2′,3′-f][1,2,5]thiadiazepin-6-yl)methyl)-4-methylphenyl)propanoic Acid]: < 1 nM and 2.6 nM.
Taken in the same sequence, the figures for `Cc1cnc2c(c1)S(=O)(=O)N(Cc1cc([C@H](c3ccn4c(C(F)F)nnc4c3C)C(C)(C)C(=O)O)ccc1C)CC1(CC1)O2` (single isomer, unassigned) [Example 561, (*R)-3-(3-(Difluoromethyl)-8-methyl-[1,2,4]triazolo[4,3-a]pyridin-7-yl)-2,2-dimethyl-3-(4-methyl-3-((8′-methyl-1′,1′-dioxidospiro[cyclopropane-1,4′-pyrido[2,3-b][1,4,5]oxathiazepin]-2′(3′H)-yl)methyl)phenyl)propanoic Acid] were 52.5 nM and 258 nM.
As to `Cc1ccc([C@H](c2ccn3c(C(F)(F)F)nnc3c2C)C(C)(C)C(=O)O)cc1CN1CC2(CCOCC2)Oc2nc(N[C@@H](C)CN3CCOCC3)c(C)cc2S1(=O)=O` (single isomer, unassigned) [Example 363, (*R)-2,2-Dimethyl-3-(4-methyl-3-((8′-methyl-7′-(((S-1-morpholinopropan-2-yl)amino)-1′,1′-dioxido-2,3,5,6-tetrahydrospiro[pyran-4,4′-pyrido[2,3-b][1,4,5]oxathiazepin]-2′(3′H)-yl)methyl)phenyl)-3-(8-methyl-3-(trifluoromethyl)-[1,2,4]triazolo[4,3-a]pyridine-7-yl)propanoic Acid], the equilibrium dissociation constant (Kd) in assay [1] was < 1 nM. Besides, in assay [2] (Homo sapiens, HEK293, 24 h), the concentration for a half-maximal effect (EC50) is 12.9 nM.
In the case of `Cc1cnc2c(c1)S(=O)(=O)N(Cc1cc([C@@H](c3ccn4c(C5CC5)nnc4c3C)C(C)(C)C(=O)O)ccc1C)CC1(CC1)O2` (single isomer, unassigned) [Example 392, (*S)-3-(3-Cyclopropyl-8-methyl-[1,2,4]triazolo[4,3-a]pyridin-7-yl)-2,2-dimethyl-3-(4-methyl-3-((8′-methyl-1′,1′-dioxidospiro[cyclopropane-1,4′-pyrido[2,3-b][1,4,5]oxathiazepin]-2′(3′H)-yl)methyl)phenyl)propanoic Acid], the equilibrium dissociation constant (Kd) in assay [1] was < 1 nM. In assay [2] (Homo sapiens, HEK293, 24 h), this compound displayed an EC50 of 11.3 nM.
The matching figures for `Cc1cnc2c(c1)S(=O)(=O)N(Cc1cc([C@@H](c3ccn4c(C(F)F)nnc4c3C)C(C)(C)C(=O)O)ccc1C)CC1(COC1)O2` (single isomer, unassigned) [Example 617, (*S)-3-(3-(Difluoromethyl)-8-methyl-[1,2,4]triazolo[4,3-a]pyridin-7-yl)-2,2-dimethyl-3-(4-methyl-3-((8′-methyl-1′,1′-dioxidospiro[oxetane-3,4′-pyrido[2,3-b][1,4,5]oxathiazepin]-2′(3′H)-yl)methyl)phenyl)propanoic Acid]: < 1 nM and 1.15 nM.
Taken in the same sequence, the figures for `CCn1nnc2c(C)c(C(CC(=O)O)c3ccc(C)c(CN4CC5(COC5)Oc5ncccc5S4(=O)=O)n3)ccc21` (racemic) [Example 240, (R/S)-3-(6-((1′,1′-Dioxidospiro[oxetane-3,4′-pyrido[2,3-b][1,4,5]oxathiazepin]-2′(3′H)-yl)methyl)-5-methylpyridin-2-yl)-3-(1-ethyl-4-methyl-1H-benzo[d][1,2,3]triazol-5-yl)propanoic Acid] were < 1 nM and 85 nM.
Taken in the same sequence, the figures for `Cc1ccc([C@@H](CC(=O)O)c2ccc3c(nnn3CC3CC3)c2C)cc1CN1CC2(COC2)Oc2ccccc2S1(=O)=O` (single isomer, unassigned) [Example 76, (*R)-3-(1-(cyclopropylmethyl)-4-methyl-1H-benzo[d][1,2,3]triazol-5-yl)-3-(3-((1′,1′-dioxidospiro[benzo[b][1,4,5]oxathiazepin-4,3′-oxetan]-2,(3H)-yl)methyl)-4-methylphenyl)propanoic Acid] were 4.8 nM and 136 nM.
For `Cc1ccc([C@H](CC(=O)O)c2ccn3c(C(F)(F)F)nnc3c2C)cc1CN1CC2(COC2)Oc2ccccc2S1(=O)=O` (single isomer, unassigned) [Example 26, (*S)-3-(3-((1,1-Dioxidospiro[benzo[b][1,4,5]oxathiazepine-4,3′-oxetan]-2(3H)-yl)methyl)-4-methylphenyl)-3-(8-methyl-3-(trifluoromethyl)-[1,2,4]triazolo[4,3-a]pyridin-7-yl)propanoic Acid], the Kd in assay [1] was 0.174 nM. Moreover, in assay [2] (Homo sapiens, HEK293, 24 h), the concentration for a half-maximal effect (EC50) was determined as 32 nM.

As a reminder, the Kd is the constant that tells how readily two partners part at equilibrium. In general, EC50 refers to the concentration giving half of the maximal effect.

The record behind these values is patent US10947252B2, “Inhibitors of KEAP1-Nrf2 protein-protein interaction” (Janssen Pharmaceutica NV, priority 2018, dated 2021).
